Test [1] has as its system GABAA receptor-mediated tonic current in hippocampal neurons. Put plainly: Whole-cell voltage-clamp recordings of tonic current in astrocyte-neuron co-cultures. The class given is cell-based, mouse. The following applies: co-treatment with etomidate 1 μM; recordings 24 h later.
The target in test [2] is T1, α2 subunit containing GABAA receptors (Mus musculus, UniProt P26048).
T1 construct: α1 and α2 subunit containing GABAA receptors in the hippocampal tissue; from tissue; host or cells: hippocampus of adult mice
T1 sequence (P26048 29-451): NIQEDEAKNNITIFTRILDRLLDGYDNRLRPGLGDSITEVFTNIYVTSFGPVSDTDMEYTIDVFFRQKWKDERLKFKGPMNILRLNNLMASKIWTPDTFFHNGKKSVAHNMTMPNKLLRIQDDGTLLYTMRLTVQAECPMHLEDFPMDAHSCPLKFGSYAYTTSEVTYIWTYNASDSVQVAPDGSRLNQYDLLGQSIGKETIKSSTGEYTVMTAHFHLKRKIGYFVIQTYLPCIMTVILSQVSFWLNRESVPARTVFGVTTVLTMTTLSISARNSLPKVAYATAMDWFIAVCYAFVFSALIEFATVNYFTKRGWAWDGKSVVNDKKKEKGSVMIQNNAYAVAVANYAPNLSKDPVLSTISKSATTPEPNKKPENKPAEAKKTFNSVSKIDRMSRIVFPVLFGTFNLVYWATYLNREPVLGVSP
Put plainly: Co-IP and WB, gephyrin and α2 subunit containing GABAA receptors. It counts as binding. As to conditions: immunoprecipitates from Example 1, hippocampal tissue.

Test [3] relates to α5GABAA receptor cell-surface expression. Put plainly: Receptor cell-surface ELISA assay in cultured hippocampal neurons. The class given is cell-based, mouse. As to conditions: peptide 2 μM, 24 hrs, astrocyte-conditioned medium (etomidate 1 μM, 1 hr). As for the experimental part: This experimental cell culture model was used to test the effects of the inhibitory peptide on an overexpression of α5GABAA receptors on the surface of neurons. The medium from astrocytes that were treated with etomidate (1 μM, 1 hr) (conditioned medium) was collected, and the medium bathing cultured hippocampal neurons was exchanged with the astrocyte-conditioned medium. The cells were incubated at 37° C., 5% CO2 with the peptide or scramble peptide (2 μM). After 24 hrs incubation, the cells were used for receptor cell-surface ELISA assay. The cells were fixed in 4% paraformaldehyde for 20 min in the presence (permeabilized) or absence (non-permeabilized) of 1% Triton-X100. The cells, after 3 times wash with cold PBS and blocked with 5% bovine album solution, were incubated with a α5 antibody (Santa Cruz Biotech Inc.) at 4° C. overnight. The next day the cells were thoroughly washed with PBS and incubated with the horseradish peroxidase (HRP)-conjugated secondary antibody for 2 hrs. With HRP substrate added and color developed in the medium, the results were determined with microplate reader.
The cell surface expression of α5 subunit was presented as the ratio of the colorimetric reading under non-permeabilized conditions to those permeabilized conditions. Consistent with the previous report, etomidate increases α5GABAA receptor surface expression. This increase was blocked by the specific peptide, but not the scramble peptide (FIG. 6A).
For astrocyte culture, cortical astrocytes were isolated from embryonic day 18 (E18) mouse embryos. Cells were allowed to grow to confluence in MEM and 10% fetal bovine serum (FBS; Life Technologies, Grand Island, New York) for 14 d. Cells were then enzymatically dissociated with trypsin-EDTA (0.05%; Life Technologies, Grand Island, New York), and passaged three times to obtain a nearly pure astrocytic culture. Astrocytes were then plated at a density of 25,000 cells per dish. […]
On the technique in general: In an ELISA, binding on a coated surface is turned into a signal by an enzyme label.

NYFTKRGWAWDGKKAL [inhibitory peptide]: in test [1], the “etomidate-induced increase in tonic current” value was “reversed”. The “effects on α2 subunit containing GABAA receptors (gephyrin interaction)” value in test [2] is on record as “did not have any effects”. In addition, in test [3], the “etomidate-induced increase in α5GABAA receptor surface expression” value is “blocked”.

These data come from patent publication US12054562B2, “Cell-permeable inhibitory agent and methods of use thereof in treatment of cognitive and mood disorders” (priority 2015, dated 2024).
